For experiment [1], the system named is S. aureus and enterococci. Conditions: Entenza et al. 2010; cited from earlier work.
The test system of experiment [2] is S. aureus MW2 (NRS123). Nature of the experiment: microbe, parasite or virus in culture. As to conditions: Staphylococcus aureus. Format: cell-based, Staphylococcus aureus. As to the method: S. aureus strains MW2 (NARSA collection clinical MRSA isolate, NRS123) and ATCC 33591 (MRSA strain from the American Type Culture Collection) were cultured on Mueller-Hinton II cation adjusted (MHA) medium in 90×90 mm square petri dishes. MHA containing ¼ of the MIC value of TR-700, TR-705, LZD, TIA, CLI, TET, or VAN, TMP/SMX throughout the plate and a continuous linear gradient of DAP across the plate was used to passage MW2. ATCC 33591 was passaged with ¼ of the MIC of a subset of these drugs (TR-700, TMP/SMX, and VAN). A DAP-only control passage group was included for both strains. DAP gradients were created by pouring two layers of media as previously described (Bryson, V., et al. 1952. Microbial selection. Science 116:45-51; Locke, J. B., et al., 2009. Antimicrob. Agents Chemother. 53:5265-5274). Following each passage the leading edge of growth (i.e., most resistant cells) was resuspended in phosphate buffered saline (PBS) to an absorbance of 0.30 OD600 and a 100 μl aliquot containing ˜3.0×10^7 CFU (colony-forming units) was spread on to the proceeding passage plate. The starting maximal DAP concentration was 2 μg/ml and was increased in two-fold increments when the leading edge of growth surpassed the half way point on the plate. A glycerol stock was made from the total cell population for each culture condition for each passage. Thirty serial passages were completed for each treatment group.

Values after ≈ are worked out from the molar mass of the structure shown. Read-outs that look alike come from different tables or passages of the source. A value given as a limit tells only on which side of the number the result lay.

In the case of `CC1(C)S[C@@H]2[C@H](NC(=O)[C@H](N)c3ccccc3)C(=O)N2[C@H]1C(=O)O` [ampicillin], in experiment [1], the “prevention of the emergence of daptomycin resistance” value was “prevented or greatly delayed selection of daptomycin-nonsusceptible mutants”.

Take `C=C[C@]1(C)C[C@@H](OC(=O)CSCCN(CC)CC)[C@]2(C)[C@H](C)CC[C@]3(CCC(=O)[C@H]32)[C@@H](C)[C@@H]1O` [TIA, tiamulin]: the MIC in experiment [2] (NRS123, passage 0, NRS123 WT) worked out at 0.5 µg/mL (≈ 1.01 µM); in experiment [2] (NRS123, passage 5, selection group DAP) it was 0.5 µg/mL (≈ 1.01 µM); in experiment [2] (NRS123, passage 5, selection group DAP + CLI) it was 1 µg/mL; in experiment [2] (NRS123, passage 5, selection group DAP + LZD), 1 µg/mL; in experiment [2] (NRS123, passage 5, selection group DAP + TET), 0.5 µg/mL; in experiment [2] (NRS123, passage 5, selection group DAP + TIA), 0.5 µg/mL. The MIC was 0.5 µg/mL in experiment [2] (NRS123, passage 5, selection group DAP + TMP/SMX); 1 µg/mL in experiment [2] (NRS123, passage 5, selection group DAP + TR-700); 1 µg/mL in experiment [2] (NRS123, passage 5, selection group DAP + TR-705); 0.5 µg/mL in experiment [2] (NRS123, passage 5, selection group DAP + VAN); 0.5 µg/mL (≈ 1.01 µM) in experiment [2] (NRS123, passage 10, selection group DAP); 1 µg/mL in experiment [2] (NRS123, passage 10, selection group DAP + CLI). For the same molecule, the MIC in experiment [2] (NRS123, passage 10, selection group DAP + LZD) is 1 µg/mL; in experiment [2] (NRS123, passage 10, selection group DAP + TET) it was 0.5 µg/mL; in experiment [2] (NRS123, passage 10, selection group DAP + TIA) it was 0.5 µg/mL; in experiment [2] (NRS123, passage 10, selection group DAP + TMP/SMX), 1 µg/mL; in experiment [2] (NRS123, passage 10, selection group DAP + TR-700), 1 µg/mL; in experiment [2] (NRS123, passage 10, selection group DAP + TR-705), 0.5 µg/mL. The MIC in experiment [2] (NRS123, passage 10, selection group DAP + VAN) is 0.5 µg/mL; in experiment [2] (NRS123, passage 15, selection group DAP), 0.5 µg/mL (≈ 1.01 µM); in experiment [2] (NRS123, passage 15, selection group DAP + CLI), 0.5 µg/mL; in experiment [2] (NRS123, passage 15, selection group DAP + LZD) it was 1 µg/mL; in experiment [2] (NRS123, passage 15, selection group DAP + TET) it was 0.25 µg/mL; in experiment [2] (NRS123, passage 15, selection group DAP + TIA) it was 0.5 µg/mL. Besides, the MIC in experiment [2] (NRS123, passage 15, selection group DAP + TMP/SMX) was 1 µg/mL; in experiment [2] (NRS123, passage 15, selection group DAP + TR-700) it was 1 µg/mL; in experiment [2] (NRS123, passage 15, selection group DAP + TR-705), 0.5 µg/mL; in experiment [2] (NRS123, passage 15, selection group DAP + VAN) it was 0.5 µg/mL; in experiment [2] (NRS123, passage 20, selection group DAP) it was 0.5 µg/mL (≈ 1.01 µM); in experiment [2] (NRS123, passage 20, selection group DAP + CLI), 0.5 µg/mL. For the same molecule, the MIC is 1 µg/mL in experiment [2] (NRS123, passage 20, selection group DAP + LZD); 0.25 µg/mL in experiment [2] (NRS123, passage 20, selection group DAP + TET); 0.5 µg/mL in experiment [2] (NRS123, passage 20, selection group DAP + TIA); 0.5 µg/mL in experiment [2] (NRS123, passage 20, selection group DAP + TMP/SMX); 1 µg/mL in experiment [2] (NRS123, passage 20, selection group DAP + TR-700); 0.5 µg/mL in experiment [2] (NRS123, passage 20, selection group DAP + TR-705). Further, the MIC was determined as 0.5 µg/mL in experiment [2] (NRS123, passage 20, selection group DAP + VAN); 0.25 µg/mL (≈ 0.506 µM) in experiment [2] (NRS123, passage 25, selection group DAP); 0.5 µg/mL in experiment [2] (NRS123, passage 25, selection group DAP + CLI); 0.25 µg/mL in experiment [2] (NRS123, passage 25, selection group DAP + LZD); 0.25 µg/mL in experiment [2] (NRS123, passage 25, selection group DAP + TET); 0.5 µg/mL in experiment [2] (NRS123, passage 25, selection group DAP + TIA). Also, the MIC was found to be 0.5 µg/mL in experiment [2] (NRS123, passage 25, selection group DAP + TMP/SMX); 1 µg/mL in experiment [2] (NRS123, passage 25, selection group DAP + TR-700); 0.5 µg/mL in experiment [2] (NRS123, passage 25, selection group DAP + TR-705); 0.5 µg/mL in experiment [2] (NRS123, passage 25, selection group DAP + VAN); 0.25 µg/mL (≈ 0.506 µM) in experiment [2] (NRS123, passage 30, selection group DAP); 0.25 µg/mL in experiment [2] (NRS123, passage 30, selection group DAP + CLI). In addition, the MIC is 0.5 µg/mL in experiment [2] (NRS123, passage 30, selection group DAP + LZD); 0.25 µg/mL in experiment [2] (NRS123, passage 30, selection group DAP + TET); 0.5 µg/mL in experiment [2] (NRS123, passage 30, selection group DAP + TIA); 0.5 µg/mL in experiment [2] (NRS123, passage 30, selection group DAP + TMP/SMX); 0.5 µg/mL in experiment [2] (NRS123, passage 30, selection group DAP + TR-700); 0.5 µg/mL in experiment [2] (NRS123, passage 30, selection group DAP + TR-705). Besides, the MIC in experiment [2] (NRS123, passage 30, selection group DAP + VAN) was 0.25 µg/mL; in experiment [2] (NRS123, read-out: DAP MIC by the end of the experiment (selection of DAP^ns strains), MW2, passaged with DAP alone or with co-selecting agent at ¼ MIC, CLSI breakpoint) it was more than 1 µg/mL.

On to Gentamicin, for which, in experiment [1], the “increase of MIC in parallel to the increase in the daptomycin MIC” value is “two-fold” and the “prevention of the emergence of daptomycin resistance” value is “unable to prevent the emergence of daptomycin resistance”.

Values taken from patent US20130274174A1, “THERAPEUTIC COMBINATION OF DAPTOMYCIN AND PROTEIN SYNTHESIS INHIBITOR ANTIBIOTIC, AND METHODS OF USE” (priority 2011, published 2013).
